# Experimental data reported in paper PMC12670405, “Second-Generation AURKA-Targeting PROTACs: Structural Optimization toward in Vivo Degradation in Neuroblastoma” (Journal of Medicinal Chemistry, 2025).
# Experiments:
# NanoLuc-AURKA [1] = target: T1, NanoLuc-AURKA (Homo sapiens, UniProt O14965); experiment: NanoBRET target engagement, permeabilized mode; format: binding; conditions: permeabilized HEK293T
# T1 construct: Plasmids encoding full-length wild-type AURKA fused to Nano-Luc; host or cells: HEK293T
# T1 sequence (O14965 1-403): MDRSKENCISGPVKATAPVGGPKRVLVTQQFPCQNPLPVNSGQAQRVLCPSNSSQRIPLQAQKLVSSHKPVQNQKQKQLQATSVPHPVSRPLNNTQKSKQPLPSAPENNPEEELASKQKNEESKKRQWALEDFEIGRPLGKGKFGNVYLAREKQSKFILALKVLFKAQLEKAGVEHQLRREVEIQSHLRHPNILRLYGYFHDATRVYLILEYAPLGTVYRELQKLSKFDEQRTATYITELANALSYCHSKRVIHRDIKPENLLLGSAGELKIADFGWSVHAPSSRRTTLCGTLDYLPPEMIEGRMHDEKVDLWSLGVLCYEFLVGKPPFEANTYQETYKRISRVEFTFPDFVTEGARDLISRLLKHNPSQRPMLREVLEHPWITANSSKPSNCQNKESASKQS
# Experimental: (§1) The NanoBRET Target Engagement Assay (Promega) was performed according to the recommended instructions from the manufacturer. Plasmids encoding full-length wild-type AURKA fused to Nano-Luc via AURKA’s C-terminus (Promega, #NV1041) were transfected into HEK293T cells using FuGENE HD (Promega, #E2312). […] The plate was mixed at 900 rpm for 15 s, using an orbital shaker. For the permeabilized-mode, digitonin (Sigma-Aldrich, #D141) was additionally added at a final concentration of 50 μg/mL. Test compounds were subsequently administered in duplicate using the D300e digital dispenser (Tecan), followed by incubation for 2 h (37 °C, 5% CO2). To measure BRET, nanoglo substrate and extracellular nanoluc inhibitor (only in live-mode) (Promega #N2540) were added, and luminescence was measured using the GloMax Discover Microplate Reader (Promega) with a luminescence filter pair of 450 nm (BP filter, donor) and 600 nm (LP filter, acceptor). The NanoBRET ratio was calculated using the following formula: BRET ratio = 1000*[(acceptor signal/donor signal)with tracer – (acceptor signal/donor signal)no tracer]. Relative BRET ratios (%) were generated by normalizing to the negative DMSO control. The experiment was performed once with 2 replicate samples.
# (§2) All dose–response curves were computed on GraphPad Prism using the Variable Slope (four parameters) equation. Absolute half-maximal degradation (DC50), growth inhibitory (GI50) and enzymatic inhibitory (IC50) concentrations, as well as inhibition constants (Ki) were derived from dose–response curves via interpolation. Statistical tests were performed on GraphPad Prism and detailed in the figure legends. Unless otherwise stated, “n” in the figure legends indicates the number of independent experiments conducted at different times.
# SK-N-BE(2)-C = experiment: IncuCyte live-cell imaging, antiproliferative effect; format: cell-based, human; conditions: Homo sapiens, SK-N-BE(2)-C, 72 h, read-out: Cell GI50 72h
# Source text: Human neuroblastoma cell lines NGP, IMR-32, SJNB-8, SK-N-BE(2)-C, SJNB-1, SK-N-SH and SK-N-AS, as well as benign immortalized cell lines RPE and HEK293T were either bought commercially or obtained through research laboratories. […] Screening for mycoplasma contamination occurred routinely on the cells. Human neuroblastoma cell lines SH-SY5Y_shABCB1 & SH-SY5Y_shNTC were generated by transduction with pLKO.1-ABCB1_TRCN0000059683 shRNA (Sigma MISSION SHCLND) or pLKO.1-puro NT shRNA (Sigma MISSION SHC002) vectors respectively (Supplementary Table S6), packaged using Lenti-X293T (Clontech). Transduced cells were selected with 2 μg/mL puromycin. These cells were cultured in DMEM 4.5 g/L D-Glucose, L-Glutamine and 110 mg/L Sodium Pyruvate (Gibco, #11995065) supplemented with 10% fetal bovine serum, 1× Antibiotic-Antimycotic solution (Sigma-Aldrich, #A5955) and 1× MEM nonessential amino acids (Sigma-Aldrich, #M7145). Incubation of all cells occurred at 37 °C and 5% CO2.
# Neuroblastoma cells were seeded in 384-well plates at different densities ranging from 1200 to 5000 cells/well and allowed to adhere overnight. RPE and HEK293T were seeded at 200 and 600 cells/well, respectively. Compound treatment was performed using the D300e Digital Dispenser (Tecan) in duplicate or triplicate and cell confluency was monitored over time using the IncuCyte Live-cell imaging system (Sartorius). […] Mean normalized confluences were calculated from 3 individual experiments.
# as §2
# SJNB-8 = experiment: as above; format: cell-based; conditions: Homo sapiens, 72 h, read-out: Cell GI50 72h, SJNB-8
# Method in brief: (§3)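 Cells seeded in 384-well plates (neuroblastoma 1200–5000, HEK293T 600 cells/well), adhered overnight, then compound-treated in duplicate or triplicate; confluency tracked by IncuCyte live-cell imaging. Normalized confluence averaged from 3 experiments; absolute GI50 interpolated from four-parameter variable-slope curves.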
# HEK293T = experiment: as above; format: cell-based; conditions: Homo sapiens, HEK-293T, 72 h, read-out: Cell GI50 72h
# Method in brief: as §3
# SK-N-SH = experiment: as above; format: cell-based; conditions: Homo sapiens, 72 h, read-out: Cell GI50 72h
# Method in brief: as §3
# NGP = experiment: as above; format: cell-based; conditions: Homo sapiens, 72 h, read-out: Cell GI50 72h, NGP (Figure 4B)
# Method in brief: as §3
# SK-N-AS = experiment: as above; format: cell-based; conditions: Homo sapiens, 72 h, read-out: Cell GI50 72h
# Method in brief: as §3
# RPE = experiment: as above; format: cell-based; conditions: 72 h, read-out: Cell GI50 72h
# IMR-32 = experiment: as above; format: cell-based; conditions: Homo sapiens, IMR-32, 72 h, read-out: Cell GI50 72h, IMR-32
# Method in brief: as §3
# NanoLuc-AURKA [2] = target: T1, NanoLuc-AURKA; experiment: NanoBRET target engagement, live (intact) cells; format: cell-based; conditions: intact HEK293T
# Experimental: as §1, §2
SMILES,potency relative to SK4454 and SK5527 in NanoBRET (NanoLuc-AURKA [1]),GI50 (SK-N-BE(2)-C) [nM],GI50 (SJNB-8) [nM],GI50 (HEK293T) [nM],GI50 (SK-N-SH) [nM],GI50 (NGP) [nM],GI50 (SK-N-AS) [nM],GI50 (RPE) [nM],GI50 (IMR-32) [nM],NanoLuc-AURKA engagement in intact cells (in words) (NanoLuc-AURKA [2])
"Cc1cc(Nc2nc(CC3(C(=O)O)CCN(C(=O)c4cccc(Cl)c4Cl)CC3)ccc2F)n[nH]1 [TAS-119, reference compound]",at least 10 times,57,44,184,30,20,134,250,11,
"O=C(O)[C@]1(Cc2cccc(Nc3nccs3)n2)CC[C@@H](Oc2cccc(Cl)c2F)CC1 [MK-5108, reference compound]",at least 10 times,302,348,1310,249,263,911,953,119,stronger AURKA engagement than TAS-119
